For one assay, the system named is herring sperm DNA-EB. Briefly: Fluorescence quenching of DNA-EB complex by compound (EB displacement). It counts as binding. Conditions: DNA-EB quenched by 7f. The text has this:
Ethidium bromide (EB) is a well known DNA intercalator, which is often used as a spectral probe to establish the mode of binding of small molecules to double-helical DNA [41]. The ﬂuorescence of EB increases after binding with DNA due to intercalation. Like EB, if naphthalimides intercalate into the helix of DNA, it would compete with EB for its intercalation sites in DNA, and the displacement of EB from the DNA–EB complex leads to a signiﬁcant decrease in the ﬂuorescence intensity of the DNA-EB complex. Therefore, herring sperm DNA-EB complex in the presence of increasing concentrations of naphthalimide-diamine conjugate 7f was also measured.
The Stern–Volmer equation is the following: F0/F = 1+ KSVc = 1+ […] where F0 and F are the ﬂuorescence intensities in the absence and presence of quencher (DNA for compound 7f or compound 7f for DNA-EB, respectively), KSV is the Stern-Volmer quenching constant, [c] is the concentration of DNA (or compound 7f), Kq is the biomolecule quenching rate constant and Kq = KSV/τ0. τ0 is the average lifetime of the molecule without any quencher and the ﬂuorescence lifetime of the biopolymer is 10^−8 s. The Stern–Volmer plots of F0/F versus [c] at the three temperatures were shown in Figure 9 and Figure 10, and the calculated KSV and Kq values were presented in Table 2 and Table 3.
When small molecules bind independently to a set of equivalent sites in a macromolecule, the binding constant (Kb) can be determined by the following equation [40, 52]: log[1/c] = log [F/(F0 − F)] + logKb(3) where Kb denotes the binding constant for interaction of naphthalimide–DNA, and F0, F, [c] have the same meanings as in Equation (2).
There are several acting forces between a small organic molecule and biomacromolecules, such as hydrophobic force, hydrogen bond, van der Waals force, electrostatic interactions, etc. […]

For another assay, the system named is herring sperm DNA. Briefly: Iodide (KI) fluorescence quenching in absence and presence of DNA. In kind it is binding. Conditions: KI quencher. From the text:
A highly negatively charged quencher is expected to be repelled by the negatively charged phosphate backbone of DNA, therefore an intercalative bound drug molecules should be protected from being quenched by anionic quencher, but the free aqueous complexes or groove binding drugs should be quenched readily by anionic quenchers. At the same time, whether the quencher accesses to fluorophore also plays a role in free and bound one.
Negatively charged I^− was selected for this purpose. The quenching constants (Ksv) were obtained from the Stern–Volmer equation. […]
Solution of compound 7f (0.5 mL, 2.00 × 10^−4 mol/L and herring sperm DNA 0.5 mL ([…]) in Tris-HCl (pH = 7.4) were mixed with 0.0, 0.10, 0.20, 0.30, 0.60, 0.90 1.20, 1.50, 1.80, 2.10, 2.40, 2.70 and 3.00 of KI (2.0 × 10^−2 mol∙L^−1) respectively. Meanwhile, 0.5 mL solution of compound 7f (2.00 × 10^−4 mol/L was only mixed with 0.0, 0.10, 0.20, 0.30, 0.60, 0.90 1.20, 1.50, 1.80, 2.10, 2.40, 2.70 and 3.00 mL of KI (2.0 × 10^−2 mol∙L^−1) respectively. The mixture was diluted to 5 mL with Tris-HCl (pH = 7.4). Thus, samples were prepared in the concentration of KI at 0.0, 400, 800, 1,200, 2,400, 3,600, 4,800, 6,000, 7,200, 8,400, 9,600, 10,800, 12,000 × 10^−6 mol∙L^−1. […] Fluorescence wavelengths and intensity areas of samples were measured at following conditions: EX = 345 nm, EM = 355~600 nm.

In the next assay the test system is HepG2 cells. The assay is described as follows: Apoptosis by Hoechst 33342 staining, laser scanning confocal microscope. It counts as cell-based. Particulars: HepG2, 20 μM, 48 h, 200 cells counted; control less than five percent. From the text: Apoptosis, or namely programmed cell death, can be triggered by several stimuli. Both naphthalimides and polyamine derivatives could trigger cell apoptosis. In order to determine whether the antitumor-proliferative effect of compound 7f was associated with cell apoptosis, the HepG2 cell apoptosis was detected by the staining of DNA with Hoechst 33342, and the apoptotic cells were counted by selecting 200 cells randomly (Figure 4). The apoptotic bodies were observed clearly in 7f-treated groups by laser scanning confocal microscope. 7f could trigger apoptosis in a dose-dependent manner with the 47.0% apoptotic ratio of 7f at 20 μM compared with the less than five percent in the control group. Exponentially growing HepG2 cells were seeded in 96 well plates (6 × 10^4 cells/well) and treated with indicated concentrations of 7f. After incubated for 48 h, cells were washed three times with PBS, and finally stained with 10 μM Hoechst 33342 in the dark at 37 °C for 20 min. They were detected by laser scanning confocal microscope and the apoptotic cells were count by selecting 200 cells randomly.

The values below come from PMC6271870, “Study on the Synthesis, Biological Activity and Spectroscopy of Naphthalimide-Diamine Conjugates” (Molecules, 2014).

With `Cl.Cl.NCCCCNCCCN1C(=O)c2cccc3cccc(c23)C1=O` [Compound 7f, 2-[3-(4-Aminobutylamino)propyl]1H-benz-[de]isoquinoline-1,3(2H)-dione dihydrochloride], the “KSV (Stern-Volmer quenching constant)” value with herring sperm DNA-EB (298 K) amounted to 5028 L/mol; with herring sperm DNA-EB (303 K) it was 4564 L/mol; with herring sperm DNA-EB (310 K), 4176 L/mol. Moreover, the “Ksv with I^− ion” value in the assay with herring sperm DNA (absence of DNA, 7f 20 × 10^−6 mol∙L^−1) is 38.178 L/mol; in the assay with herring sperm DNA (presence of DNA 22.84 × 10^−6 mol∙L^−1, 7f 20 × 10^−6 mol∙L^−1), 31.575 L/mol. The apoptotic ratio with HepG2 cells is listed as 47.0%.
